For 10 compounds, IC50 and inhibition results are on record in ChEMBL document CHEMBL1137472, “Discovery of potent HIV-1 protease inhibitors incorporating sulfoximine functionality” (Bioorg Med Chem Lett, 2007).

One test has as its target Protease (Human immunodeficiency virus 1, UniProt Q9YQ12). The experiment in a line: Inhibition of HIV1 recombinant protease.
Test [1] relates to Human immunodeficiency virus 1. As to the kind of experiment: Antiviral activity against HIV1. Type of test: functional, organism-based.
Test [2] deals with Protease (Human immunodeficiency virus 1) (UniProt Q9YQ12). The experiment in a line: Inhibition of HIV1 recombinant protease at 10 uM.
Protease (Human immunodeficiency virus 1), sequence (Q9YQ12 as listed by the source): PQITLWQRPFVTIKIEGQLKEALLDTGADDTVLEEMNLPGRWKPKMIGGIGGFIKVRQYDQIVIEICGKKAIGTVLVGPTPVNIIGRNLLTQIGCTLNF

SMILES strings stand for the structures. Where only a bound is given, the exact number is not on record here.

The IC50 is the concentration that gives 50% inhibition. By inhibition is commonly meant the percentage by which the read-out fell short of the control.

Protease, sequence (Q9YQ12 whole entry): as the sequence (Q9YQ12 as listed by the source) above

Turning to `N=[S+]([O-])(C[C@H](Cc1ccccc1)C(=O)N[C@@H]1c2ccccc2C[C@@H]1O)C[C@H](Cc1ccccc1)C(=O)N[C@@H]1c2ccccc2C[C@@H]1O`, the IC50 at Protease turned out to be 2.5 nM; in test [1], 408 nM.
In the case of `N=[S+]([O-])([C@H](Cc1ccccc1)C(=O)N[C@H]1c2ccccc2C[C@H]1O)[C@H](Cc1ccccc1)C(=O)N[C@H]1c2ccccc2C[C@H]1O`, the IC50 on Protease stood at 154 nM.
Same read-out and setting: with `O=C(N[C@H]1c2ccccc2C[C@H]1O)[C@H](Cc1ccccc1)C[S+]([O-])C[C@H](Cc1ccccc1)C(=O)N[C@H]1c2ccccc2C[C@H]1O` the figure was 53.1 nM; with `N=[S+]([O-])([C@H](Cc1ccccc1)C(=O)N[C@H]1c2ccccc2C[C@H]1O)[C@@H](Cc1ccccc1)C(=O)N[C@H]1c2ccccc2C[C@H]1O`, 37.3 nM.
For `O=C(N[C@H]1c2ccccc2C[C@H]1O)C(Cc1ccccc1)S(=O)(=O)C(Cc1ccccc1)C(=O)N[C@H]1c2ccccc2C[C@H]1O` (stereo partly specified), the inhibition in test [2] is 30%.
Consider `O=C(N[C@H]1c2ccccc2C[C@H]1O)[C@@H](Cc1ccccc1)C[S+]([O-])C[C@H](Cc1ccccc1)C(=O)N[C@H]1c2ccccc2C[C@H]1O`, for which the IC50 on Protease was over 10000 nM.
On to `O=C(N[C@@H]1c2ccccc2C[C@@H]1O)[C@@H](Cc1ccccc1)C[S+]([O-])C[C@H](Cc1ccccc1)C(=O)N[C@@H]1c2ccccc2C[C@@H]1O` (single isomer, unassigned), for which the IC50 at Protease was found to be 21.1 nM.
For `N=[S+]([O-])(C(Cc1ccccc1)C(=O)N[C@H]1c2ccccc2C[C@H]1O)C(Cc1ccccc1)C(=O)N[C@H]1c2ccccc2C[C@H]1O` (stereo partly specified), the inhibition in test [2] stood at 87%.
On the same count and under the same terms, with `O=C(N[C@H]1c2ccccc2C[C@H]1O)C(Cc1ccccc1)C[S+]([O-])CC(Cc1ccccc1)C(=O)N[C@H]1c2ccccc2C[C@H]1O` (stereo partly specified) the figure was 75%; with `O=C(N[C@H]1c2ccccc2C[C@H]1O)C(CSCC(Cc1ccccc1)C(=O)N[C@H]1c2ccccc2C[C@H]1O)Cc1ccccc1` (stereo partly specified), 15%.
